# Reference: patent publication US9695168B2 (Incyte Corporation, priority 2014, dated 2017)
# Molecular target: LSD1 (Homo sapiens (Human), UniProt O60341)
# Assay: LSD1 Histone Demethylase Biochemical Assay (LANCE LSD1/KDM1A demethylase assay)
# Settings: 1 nM LSD-1 enzyme, 1 hour preincubation at 25° C., 0.4 μM Biotin-labeled Histone H3 peptide substrate
row,SMILES,IC50 [nM]
1,"CN1CCC[C@@H](COc2cc(-c3ccc(C#N)cc3)c(-c3cnc4c(c3)nnn4C3CC3)n3cncc23)C1 [Example 156, (R)-4-(5-(3-cyclopropyl-3H-[1,2,3]triazolo[4,5-b]pyridin-6-yl)-8-((1-methylpiperidin-3-yl)methoxy)imidazo[1,5-a]pyridin-6-yl)benzonitrile]",100 to 500
2,"CC(C)c1nc2cc(-c3c(-c4ccc(C#N)cc4)cc(OC[C@@H]4CCCN(C)C4)c4cncn34)cnc2n1C [Example 157, (R)-4-(5-(2-isopropyl-3-methyl-3H-imidazo[4,5-b]pyridin-6-yl)-8-((1-methylpiperidin-3-yl)methoxy)imidazo[1,5-a]pyridin-6-yl)benzonitrile]",100 to 500
3,"CN1CCC[C@@H](COc2cc(-c3ccc(C#N)cc3)c(-c3cnc4c(c3)nc(C3CC3)n4C)n3cncc23)C1 [Example 158, (R)-4-(5-(2-cyclopropyl-3-methyl-3H-imidazo[4,5-b]pyridin-6-yl)-8-((1-methylpiperidin-3-yl)methoxy)imidazo[1,5-a]pyridin-6-yl)benzonitrile]",100 to 500
